# Test results published in patent publication US20160090556A1, “PRODUCTS COMPRISING MALODOR REDUCTION MATERIALS” (The Procter & Gamble Company, priority 2014, published 2016).
# Like-named read-outs stand apart in the source and are kept apart here.
# How the values were obtained:
# [1] = Liquid dish neat product liquid-air partition coefficient; type: physicochemical
# [2] = Probability of Ingredient Color Instability; type: physicochemical; conditions: for Comment Code: Probability of Ingredient Color Instability: codes E/F of the Comment Code, Table 1
# [3] = class code letter within Comment Code
# [4] = codes K/L of the Comment Code, Table 1
SMILES,"Log of liquid dish neat product liquid-air partition coefficient (Comment Code K/L) [1, 3]","Probability of Ingredient Color Instability (Comment Code E/F) [2, 3]",Log of liquid dish neat product liquid-air partition coefficient (Comment Code K/L) [1],Probability of Ingredient Color Instability (Comment Code E/F) [2],also measured
CC1=C(CCC(C)C=O)C(C)(C)CCC1 (centres unmarked) [Material 560],K (Log of liquid dish neat product liquid-air partition coefficient greater than or equal to −7),F (Probability of Ingredient Color Instability<71%),–,–,–
O=CCCC=C1CC2CC1C1CCCC21 (centres unmarked) [Material 418],K (Log of liquid dish neat product liquid-air partition coefficient greater than or equal to −7),F (Probability of Ingredient Color Instability<71%),–,–,–
CC1=CCCC2(C)OC2CCC(C)=CCC1 (racemic) [Material 568],–,–,K (Log of liquid dish neat product liquid-air partition coefficient greater than or equal to −7),F (Probability of Ingredient Color Instability<71%),–
CCC1=C(O)C(=O)C(C)O1 (centres unmarked) [Material 259],K (Log of liquid dish neat product liquid-air partition coefficient greater than or equal to −7),F (Probability of Ingredient Color Instability<71%),–,–,–
CC(CC=O)CCc1ccccc1 (centres unmarked) [Material 807],–,–,K (Log of liquid dish neat product liquid-air partition coefficient greater than or equal to −7),F (Probability of Ingredient Color Instability<71%),–
CCCCCCCCCCCCCC=O [Material 36],K (Log of liquid dish neat product liquid-air partition coefficient greater than or equal to −7),F (Probability of Ingredient Color Instability<71%),–,–,–
CC1(C)C2CC=C(CCC=O)C1C2 (centres unmarked) [Material 781],–,–,K (Log of liquid dish neat product liquid-air partition coefficient greater than or equal to −7),F (Probability of Ingredient Color Instability<71%),–
CCCCCCCCCCCC=O [Material 178],K (Log of liquid dish neat product liquid-air partition coefficient greater than or equal to −7),F (Probability of Ingredient Color Instability<71%),–,–,–
CCCCCCCCCCC=CC=O [Material 930],–,–,K (Log of liquid dish neat product liquid-air partition coefficient greater than or equal to −7),F (Probability of Ingredient Color Instability<71%),–
O=C(Oc1ccccc1)c1ccccc1 [Material 965],–,–,K (Log of liquid dish neat product liquid-air partition coefficient greater than or equal to −7),F (Probability of Ingredient Color Instability<71%),–
CC(C)=CCCC(C)CCCC(C)C=O (centres unmarked) [Material 757],–,–,K (Log of liquid dish neat product liquid-air partition coefficient greater than or equal to −7),F (Probability of Ingredient Color Instability<71%),–
C=CC(C)CC/C=C(\C)CCC=O (centres unmarked) [Material 358],K (Log of liquid dish neat product liquid-air partition coefficient greater than or equal to −7),F (Probability of Ingredient Color Instability<71%),–,–,–
CC(C)=CCCC(C)(O)C1CC=C(C)CC1 (centres unmarked) [Material 718],–,–,K (Log of liquid dish neat product liquid-air partition coefficient greater than or equal to −7),F (Probability of Ingredient Color Instability<71%),–
CC(C)c1ccc(CCC=O)cc1 [Material 826],–,–,K (Log of liquid dish neat product liquid-air partition coefficient greater than or equal to −7),F (Probability of Ingredient Color Instability<71%),–
C/C=C/c1cc(OC)c(OC)cc1OC [Material 924],–,–,K (Log of liquid dish neat product liquid-air partition coefficient greater than or equal to −7),F (Probability of Ingredient Color Instability<71%),–
CC1CC=CCCCCCCCC(=O)OCC1 (centres unmarked) [Material 52],K (Log of liquid dish neat product liquid-air partition coefficient greater than or equal to −7),F (Probability of Ingredient Color Instability<71%),–,–,–
CC(C)=CCCC1=CCC(C=O)CC1 (centres unmarked) [Material 211],K (Log of liquid dish neat product liquid-air partition coefficient greater than or equal to −7),F (Probability of Ingredient Color Instability<71%),–,–,–
CC1=CCC(C(C)CC=O)CC1 (centres unmarked) [Material 159],K (Log of liquid dish neat product liquid-air partition coefficient greater than or equal to −7),F (Probability of Ingredient Color Instability<71%),–,–,–

SMILES,"Log of liquid dish neat product liquid-air partition coefficient (Comment Code K/L) [1, 3]","Probability of Ingredient Color Instability (Comment Code E/F) [2, 3]",Log of liquid dish neat product liquid-air partition coefficient (Comment Code K/L) [1],Probability of Ingredient Color Instability (Comment Code E/F) [2],also measured
CC1=C2CC(C(C)(C)O)CCC2(C)CCC1 (centres unmarked) [Material 872],–,–,K (Log of liquid dish neat product liquid-air partition coefficient greater than or equal to −7),F (Probability of Ingredient Color Instability<71%),"Comment Code: Log of liquid dish neat product liquid-air partition coefficient ([1]; code letters K, L): K (Log of liquid dish neat product liquid-air partition coefficient greater than or equal to −7)"
CCCCCCC(CO)C(C)=O (centres unmarked) [Material 106],K (Log of liquid dish neat product liquid-air partition coefficient greater than or equal to −7),F (Probability of Ingredient Color Instability<71%),–,–,–
C=CCc1ccc(OC(C)=O)c(OC)c1 [Material 374],K (Log of liquid dish neat product liquid-air partition coefficient greater than or equal to −7),F (Probability of Ingredient Color Instability<71%),–,–,–
COC(C)(C)CCCC(C)CC=O (centres unmarked) [Material 126],K (Log of liquid dish neat product liquid-air partition coefficient greater than or equal to −7),F (Probability of Ingredient Color Instability<71%),–,–,–
CC=CC(=O)OC(C)C1CCCCC1 (centres unmarked) [Material 475],K (Log of liquid dish neat product liquid-air partition coefficient greater than or equal to −7),F (Probability of Ingredient Color Instability<71%),–,–,–
C=C(OCC)C1C(C)(C)CC(=O)CC1(C)C [Material 182],K (Log of liquid dish neat product liquid-air partition coefficient greater than or equal to −7),F (Probability of Ingredient Color Instability<71%),–,–,–
CC(C)=CCCC1=CCC(C)(C=O)CC1 (centres unmarked) [Material 988],–,–,K (Log of liquid dish neat product liquid-air partition coefficient greater than or equal to −7),F (Probability of Ingredient Color Instability<71%),–
CC1CC(C)(c2ccccc2)OC(C)O1 (centres unmarked) [Material 1126],–,–,–,–,"Comment Code: Log of liquid dish neat product liquid-air partition coefficient [1, 4]: K (Log of liquid dish neat product liquid-air partition coefficient greater than or equal to −7); Comment Code: Probability of Ingredient Color Instability [2]: F (Probability of Ingredient Color Instability<71%)"
CCCCCCCCCC(C)C=O (centres unmarked) [Material 103],K (Log of liquid dish neat product liquid-air partition coefficient greater than or equal to −7),F (Probability of Ingredient Color Instability<71%),–,–,–
CC1=CC2CC(C=O)C1CC2C(C)C (centres unmarked) [Material 142],K (Log of liquid dish neat product liquid-air partition coefficient greater than or equal to −7),F (Probability of Ingredient Color Instability<71%),–,–,–
CCCCCC1C(=O)CCC1CC(=O)OC (centres unmarked) [Material 113],K (Log of liquid dish neat product liquid-air partition coefficient greater than or equal to −7),F (Probability of Ingredient Color Instability<71%),–,–,–
CC(C)=CCCC1=CCC(C)(C=O)CC1 (centres unmarked) [Material 727],–,–,K (Log of liquid dish neat product liquid-air partition coefficient greater than or equal to −7),F (Probability of Ingredient Color Instability<71%),–
CC(C=O)=CCC1C(C)=CCCC1(C)C (centres unmarked) [Material 1116],–,–,–,–,"Comment Code: Log of liquid dish neat product liquid-air partition coefficient [1, 4]: K (Log of liquid dish neat product liquid-air partition coefficient greater than or equal to −7); Comment Code: Probability of Ingredient Color Instability [2]: F (Probability of Ingredient Color Instability<71%)"
CCOC(=O)C1OC1(C)c1ccccc1 (centres unmarked) [Material 377],K (Log of liquid dish neat product liquid-air partition coefficient greater than or equal to −7),F (Probability of Ingredient Color Instability<71%),–,–,–
N#CC(=C1CCCCC1)c1ccccc1 [Material 945],–,–,K (Log of liquid dish neat product liquid-air partition coefficient greater than or equal to −7),F (Probability of Ingredient Color Instability<71%),–
CC(C)(C=O)CC1=CCC2CC1C2(C)C (centres unmarked) [Material 925],–,–,K (Log of liquid dish neat product liquid-air partition coefficient greater than or equal to −7),F (Probability of Ingredient Color Instability<71%),–
CCCCCCC(=O)CC [Material 394],–,F (Probability of Ingredient Color Instability<71%),–,–,–
C=CC(C)(CCC=C(C)C)OC(=O)c1ccccc1N (centres unmarked) [Material 153],–,F (Probability of Ingredient Color Instability<71%),–,–,–
